Measurements: PMC7557804, “The Anti-Microbial Peptide (Lin-SB056-1)2-K Reduces Pro-Inflammatory Cytokine Release through Interaction with Pseudomonas aeruginosa Lipopolysaccharide” (Antibiotics, 2020)
“Also recorded” adds a separate entry of the source.

What was measured:
A549 cells [1] = assay: LPS-induced cytokine production by A549 cells (bead-based multiplex immunoassay); type: cell-based, Human; conditions: LPS 800 ng/mL, 4 h, 37 °C, peptide 4.8 to 19.25 μM
Procedure: (§1) Human non-small-cell lung adenocarcinoma A549 cells (ATCC CCL-185; LGC Standards, Milan, Italy) and human monocytic THP-1 cells (ATCC TIB-202; LGC Standards) were cultured in tissue culture flasks in Dulbecco’s modified essential medium (DMEM) (Euroclone, Milan, Italy) and RPMI 1640 medium (Euroclone), respectively. Both media were supplemented with 2 mM L-glutamine (Euroclone) and 10% heat-inactivated fetal bovine serum (FBS; Euroclone). Confluent monolayers were detached from the culture flask with 0.25% trypsin/1 mM EDTA solution (Euroclone), suspended in complete culture medium and seeded into flat-bottom 96-well plates at a final density of 1 × 10^4 cells/well (A549) and 2 × 10^4 cells/well (THP-1). A549 cells were cultured for 24 h at 37 °C, 5% CO2 in order to allow adhesion and formation of semi-confluent monolayers. THP-1 cells were cultured for 3 days (37 °C, 5% CO2) in the presence of 100 nM TPA (Sigma-Aldrich, St. Louis, MO, USA) to induce their differentiation into macrophage-like cells.
The anti-inflammatory potential of lin-SB056-1 and (lin-SB056-1)2-K was assessed by evaluating their ability to reduce LPS-induced production of pro-inflammatory cytokines by A549 cells and THP-1 macrophages. In order to ensure cytokine production, cell monolayers were stimulated with LPS from P. aeruginosa serotype 10 (purified by phenol extraction; Sigma-Aldrich, Milano, Italy) at a final concentration of 10 ng/mL (THP-1) and 800 ng/mL (A549). LPS concentrations used in the experiments were chosen based on preliminary assays aimed at identifying the minimum dose of the molecule able to stimulate cytokine production after 4 h of exposure. In order to assess the inhibitory activity of peptides on cytokine production, cell monolayers were incubated in complete culture medium in the presence of LPS and different concentrations of lin-SB056-1 and (lin-SB056-1)2-K (4.8 to 19.25 μM) for 4 h (37 °C, 5% CO2). Cells incubated in the presence of LPS alone were used as positive (cytokine production) control. Following incubation, cell culture supernatants were collected, filter sterilized (0.22 µm) and employed for the quantification of cytokines and the assessment of cell viability.
Different pro-inflammatory cytokines (i.e., IL-1β, IL-6, IL-8 and TNF-α) were quantified in cell culture supernatants through a bead-based multiplex immunoassay (LEGENDplex multi-analyte flow assay kit; BioLegend, San Diego, CA, USA) following manufacturer’s instructions. Briefly, 25 μL of cytokine standard or cell supernatant were incubated with 25 μL of anti-cytokine conjugated beads into V-bottom 96-well plates for 2 h. Following incubation, the plates were washed and subsequently incubated with the detection antibody (25 μL/well) for 1 h. A volume of 25 μL of streptavidin-phycoerythrin was added to each well, and the plates were incubated for another 30 min in the dark. Following consecutive washing steps, the beads were resuspended in the LEGENDplex wash buffer and the samples were analyzed by flow cytometry (BD Accuri C6 flow cytometer; BD Biosciences, Mountain View, CA, United States). Data were acquired with the BD Accuri C6 software (BD Biosciences) (300 events per analyte) and analyzed with the LEGENDplex software (BioLegend). Minimum detectable concentration (MDC+2STDEV) for the tested cytokines were as follows: IL-1β, 0.65 + 0.47 pg/mL; IL-6, 0.97 + 1.46 pg/mL; IL-8, 1.90 + 0.65 pg/mL; TNF-α, 0.88 + 0.27 pg/mL.

THP-1 macrophages = assay: Cytotoxicity (LDH release) towards THP-1 macrophages; type: cell-based, Human; conditions: LPS-stimulated THP-1 macrophages, 4 h
Procedure: as §1
(§2) The cytotoxicity of lin-SB056-1 and (lin-SB056-1)2-K towards A549 and THP-1 cells was evaluated to exclude a possible correlation between reduction in cytokine levels and decrease in cell numbers. To this end, culture supernatants of cells stimulated with LPS in the presence of the peptides were employed to quantify the amount of cytoplasmic LDH released by dead cells. Cells incubated in culture medium alone or in the presence of LPS served as an indication of spontaneous cell death (cell viability controls), while cells treated with a commercial lysis buffer (Pierce LDH cytotoxicity assay kit, Thermo Fisher Scientific) were used as cell death control (100% cell lysis). The enzymatic activity of LDH in cell supernatants was measured using the Pierce LDH cytotoxicity assay kit (Thermo Fisher Scientific) following manufacturer’s instructions. The cytotoxic effect was determined as follows: cytotoxicity (%) = [(LDH activity of A/LDH activity of B) × 100], where A represents peptide-treated or untreated cells (both in the presence and absence of LPS), and B corresponds to the cell lysis control.

mammalian cells = conditions: cited from earlier work
Description: (§3) The global issue of anti-microbial resistance coupled with the lack of new treatments for bacterial infections has stimulated interest in the use of AMPs for therapeutic purposes. Due to their unique mechanism(s) of action and wide spectrum of biological activities, AMPs are emerging as a promising alternative to conventional anti-microbial agents for the management of antibiotic-resistant and biofilm-associated infections. Although mainly intended for topical use due to potential toxicity and reduced stability under physiological conditions, many different peptides with anti-micro ...

P. aeruginosa = conditions: previous studies; cited from earlier work
Description: as §3

[2] = BODIPY TR cadaverine (BC) fluorescent displacement assay, LPS binding; design: species or system P. aeruginosa; conditions: P. aeruginosa serotype 10 LPS 10 µg/mL, BC 10 µM; 50 mM Tris-HCl, pH 7.4; 25 °C; excitation 580 nm, emission 620 nm; mean of three independent experiments, SD not exceeding 5%
Procedure: Measurement of the ability of lin-SB056-1 and its dendrimeric derivative to bind P. aeruginosa serotype 10 LPS (Sigma-Aldrich) in vitro was performed by a fluorescent displacement assay using the BODIPY TR cadaverine (BC) probe (5-(((4-(4,4-difluoro-5-(2-thienyl)-4-bora-3a,4a-diaza-s-indacene-3-yl)phenoxy)acetyl)amino)pentylamine, hydrochloride); Thermo Fisher Scientific), as described elsewhere. BC binds to LPS by recognizing the lipid A portion and the probe fluorescence is quenched. When a peptide able to interact with LPS is added, BC is displaced from the complex and its fluorescence increases. LPS binding assays were carried out in 50 mM Tris-HCl buffer, pH 7.4. Aliquots of the peptides at a final concentration of 0.1 μM were successively added to a cuvette containing the LPS/BC complex (10 µg/mL P. aeruginosa LPS and 10 µM BC). Fluorescence measurements were performed with a Perkin-Elmer LS 55B spectrofluorometer (Perkin-Elmer, Waltham, MA, USA) using a thermostated (25 °C) cuvette apparatus (excitation: 580 nm; emission: 620 nm).

[3] = LAL assay, LPS neutralization; type: biochemical, Escherichia coli; conditions: 2.4 to 19.25 μM peptide; E. coli 011:B4 LPS 2 EU/mL; 30 min, 37 °C
Procedure: The ability of lin-SB056-1 and (lin-SB056-1)2-K to neutralize the activity of LPS was analyzed using a standardized LAL assay (Pierce LAL chromogenic endotoxin quantitation kit; Thermo Fisher Scientific). Peptides at different concentrations (2.4 to 19.25 μM) were pre-incubated with E. coli 011:B4 LPS (2 Endotoxin Units (EU)/mL; EU = unit of measurement for endotoxin activity) for 30 min (37 °C, shaking) in order to promote the interaction between the two molecules. LPS alone was used as positive control. Following incubation, peptide-treated and untreated samples were mixed with the LAL reagent (1:1 ratio) and incubated for 10 min at 37 °C. Subsequently, 100 μL of the chromogenic substrate were added and incubated with the samples for 6 min. The reaction was terminated by adding 100 μL of acetic acid (25% v/v), and absorbance was measured at 405 nm ([…]) using a microplate reader (Multiscan FC, Life Technologies Italia, Monza, Italy). The amount of peptide-sequestered LPS was determined as follows: LPS neutralization (%) = [100 − (ODpeptide/ODpositive control × 100)].

A549 cells [4] = assay: Cytotoxicity (LDH release) towards A549 cells; type: cell-based, Human; conditions: LPS-stimulated A549, 4 h
Procedure: as §1, §2

sepsis in animal models = conditions: by sequestering soluble LPS; cited from earlier work
Description: While the anti-microbial activities of AMPs are becoming increasingly understood, the mechanisms underlying their anti-inflammatory effect still need to be fully elucidated. Nevertheless, the anti-inflammatory mode of action of many peptides has been attributed to their ability to efficiently bind LPS and/or block LPS recognition by effector cells. […] Analogous LPS-ne ...

[5] = in vitro; cited from earlier work
Description: While the anti-microbial activities of AMPs are becoming increasingly understood, the mechanisms underlying their anti-inflammatory effect still need to be fully elucidated. Nevertheless, the anti-inflammatory mode of action of many peptides has been attributed to their ability to efficiently bind LPS and/or block LPS recognition by effector cells. […] Analogous LPS-ne ... || It is generally thought that the dendrimeric architecture leads to improved biological activity due to a higher local concentration of the active sequence. Possibly, thanks to its conformational plasticity, the dendrimeric organization might maximize target binding (e.g., LPS) through electrostatic interactions, leading to greater biological effects. Nevertheless, we cannot exclude a role of stability on the ability of dendrimeric peptides to establish solid interactions with LPS under specific experimental conditions. For instance, the stronger LPS-binding affinity of (lin-SB056-1 ...

[6] = up to 19.25 μM (highest tested), 37 °C, 5% CO2, relative to cell lysis control, at least three independent experiments

KWKIRVRLSA-NH2 [lin-SB056-1, semi-synthetic peptide lin-SB056-1]
effect on IL-6 release (A549 cells [1]): only a decrease in IL-8 levels was recorded
effect on IL-8 release (A549 cells [1]; lin-SB056-1 decrease at 19.25 μM (highest tested)): decrease in IL-8 levels
cell death (LDH release), with LPS (THP-1 macrophages; [6]): less than 5%
toxicity (THP-1 macrophages; up to 19.25 μM, LDH release): no detectable toxicity
cytotoxicity (mammalian cells): low cytotoxicity
anti-microbial / anti-biofilm activity (P. aeruginosa): effective against biofilms; also recorded: promising anti-microbial activity
ED50 (Effective Displacement; peptide concentration displacing half of the BC) [2]: ~1750 nM
LPS neutralization / LAL activity [3]: differently from lin-SB056-1
cell death (LDH release), with LPS (A549 cells [4]; [6]): less than 5%
toxicity (A549 cells [4]; up to 19.25 μM, LDH release): no detectable toxicity

LL-37: well-known human cathelicidin LL-37 (LLGDFFRKSKEKIGKEFKRIVQRIKDFLRNLVPRTES; Antibacterial peptide LL-37; UniProt P49913 134-170, looked up)
protection from sepsis (sepsis in animal models): protect from sepsis
LPS-induced pro-inflammatory responses [5]: suppress LPS-induced pro-inflammatory responses
